Experimental data: US20110165266A1 (priority 2008, published 2011)
Read-outs that look alike come from different tables or passages of the source.

Legend:
[1] = system: aryl sulfotransferases; conditions: cited from earlier work
[2] = system: MLV LTR-driven mRNA transcription (pCMMP-EGFP); format: cell-based, murine leukemia virus (MLV)
[3] = system: VSV-G pseudotyped MLV vector (MMP-nls-lacZ[VSV-G]); format: cell-based, murine leukemia virus (MLV)
[4] = system: VSV-G pseudotyped HIV-1 vector NL43E-R-Luc; format: cell-based
[5] = system: HIV; assay: HIV infection with suboptimal (20 mM) chlorate; conditions: FIG. 21B
[6] = system: HIV; assay: HIV infection in low versus high sulfate media; conditions: FIG. 20B
[7] = system: MLV vector pMMp-nls-LacZ[VSV-G]; format: cell-based, murine leukemia virus (MLV)
[8] = system: VSV-G pseudotyped MLV vector (pLEGFP); format: cell-based, murine leukemia virus (MLV)
[9] = system: resident (pCMMP-SEAP) and newly acquired (MMP-nls-lacZ[VSV-G]) MLV proviruses; format: cell-based, murine leukemia virus (MLV)
[10] = system: MLV vector pMMp-nls-LacZ[VSV-G]; format: cell-based, murine leukemia virus (MLV); remark: listed apart in the source

Compound: Oc1cc(Cl)ccc1Oc1ccc(Cl)cc1Cl [trichlosan]
- quantities that interfere with aryl sulfotransferases [1]: μM

Compound: COc1ccccc1O [guaiacol]
- reduction of viral-derived transcript levels, normalized to β-actin ([2]; CHO-K1 cells, 100 mM chlorate, 5 mM guaiacol or both, FIGS. 6D, 6E): 17 fold
- quantities that interfere with aryl sulfotransferases [1]: mM
- fold less blue cells as compared to untreated cells [3]: ~3.4 fold
- reduction in HIV LTR-driven reporter gene expression [4]: 8 fold

Compound: Cc1cn([C@H]2C[C@H](N=[N+]=[N-])[C@@H](CO)O2)c(=O)[nH]c1=O [AZT]
- inhibition of HIV infection in media containing 20 mM chlorate versus standard media [5]: unaffected by 20 mM chlorate
- inhibition of HIV infection in low sulfate media versus high sulfate media [6]: unaffected by low sulfate conditions

Compound: [O-][Cl+2]([O-])O [chlorate]
- reduction of viral-derived transcript levels, normalized to β-actin [2]: 11 fold
- additional reduction of MLV infection [7]: 2 fold
- effect on accumulation of viral reverse transcription products [8]: no effect
- fold less blue cells as compared to untreated cells [3]: approximately 6.7 fold
- time of addition that had no effect on viral reporter gene expression [3]: ≥ 18 hpi
- time of addition that led to a reduction in subsequent viral reporter gene expression [3]: up to 16 hpi
- reduction in HIV LTR-driven reporter gene expression [4]: 10 fold
- effect on gene expression from newly acquired versus resident proviruses [9]: affected gene expression from the newly acquired, but not the resident proviruses
- influence on β-galactosidase expression from a resident MLV vector [9]: not to influence
- fold less susceptible to infection, by reporter gene expression [10]: approximately 9.3 fold
